Test results published in patent US11844785B2, “3-(phenyl)-N-(4-phenoxybenzyl)-1,2,4-oxadiazole-5-carboxamide compounds for the management of CFTR protein mediated diseases” (Emory University, priority 2015, dated 2023).
Like-named read-outs stand apart in the source and are kept apart here.

How the values were obtained:
mCFTR = mCFTR (Mus musculus, UniProt P26361); details: cited from earlier work
hCFTR = hCFTR (Homo sapiens, UniProt P13569); details: cited from earlier work
[1] = biological target: T1, wildtype human CFTR (WT-hCFTR) (Homo sapiens, UniProt P13569); assay: Two-electrode voltage clamp (TEVC) on Xenopus oocytes expressing WT-hCFTR; assay type: cell-based; details: for Kd: FIG. 2A
T1 construct: expressed in transfected cells; host or cells: Xenopus laevis oocytes injected with cRNA (hCFTR/pGEMHE, gift of D. Gadsby)
Text: (§1) In order to identify compounds that potentiate F508del-hCFTR expressed in Xenopus oocytes, the effects of IOWH-032 on WT, R352A, and F508del-hCFTR were studied using the two-electrode voltage clamp (TEVC) technique. […] See Drumm et al. Chloride conductance expressed by delta F508 and other mutant CFTRs in Xenopus oocytes. Science, 1991, 254(5039): 1797-1799. Extracellular exposure to IOWH-032 potentiated WT and F508del-hCFTR channels.
Human CFTR cRNAs used in electrophysiology experiments were prepared from constructs encoding WT-hCFTR in the pGEMHE vector (hCFTR/pGEMHE kindly provided by Dr. D. Gadsby, Rockefeller University). The mutants of hCFTR used in this study were prepared using site-directed mutagenesis with the Quikchange protocol (Stratagene, La Jolla, CA) and mutant constructs were verified by sequencing across the entire open reading frame before use. Xenopus laevis oocytes were injected with 0.4-10 ng of CFTR cRNAs, and were incubated at 17° C. in modified Liebovitz's L-15 media with the addition of HEPES (pH 7.5), penicillin, and streptomycin. Recordings were made typically 24-96 hours after the injection of cRNAs.
Standard two-electrode voltage clamp (TEVC) techniques were used to study the effects of chemicals with application of reagents to the extracellular bath. Each oocyte was injected with CFTR cRNA along with cRNA encoding the beta2-adrenergic receptor (β2AR). Electrode resistances measured 0.5-1.4 MΩ when filled with 3 M KCl and measured in standard ND96 bath solution that contained (in mM): 96 NaCl, 2 KCl, 1 MgCl2, and 5 HEPES (pH 7.5). CFTR channels were activated by exposure to 10 μM isoproterenol (ISO) in ND 96 and alternatively assayed in the presence or absence of different concentrations of compounds in the bath solution, typically in the continuing presence of ISO. Currents were acquired with an Axoclamp 900A amplifier and Clampex 10.2 software, and current data were digitized at 2 kHz.

[2] = biological target: T2, human CFTR with a R352A mutation (Homo sapiens, UniProt P13569, R352A); assay: Two-electrode voltage clamp (TEVC) on Xenopus oocytes expressing R352A-hCFTR; assay type: cell-based; details: FIG. 2B
T2 construct: expressed in transfected cells; host or cells: Xenopus laevis oocytes injected with cRNA; mutant made by Quikchange site-directed mutagenesis of hCFTR/pGEMHE
Text: as §1
(§2) Human CFTR cRNAs used in electrophysiology experiments were prepared from constructs encoding WT-hCFTR in the pGEMHE vector (hCFTR/pGEMHE kindly provided by Dr. D. Gadsby, Rockefeller University). The mutants of hCFTR used in this study were prepared using site-directed mutagenesis with the Quikchange protocol (Stratagene, La Jolla, CA) and mutant constructs were verified by sequencing across the entire open reading frame before use. […]
(§3) Standard two-electrode voltage clamp (TEVC) techniques were used to study the effects of chemicals with application of reagents to the extracellular bath. […] Electrode resistances measured 0.5-1.4 MΩ when filled with 3 M KCl and measured in standard ND96 bath solution that contained (in mM): 96 NaCl, 2 KCl, 1 MgCl2, and 5 HEPES (pH 7.5). […]

F508del-hCFTR = biological target: T3, F508del-hCFTR (Homo sapiens, UniProt P13569, DEL508-508); assay: Two-electrode voltage clamp (TEVC) on Xenopus oocytes expressing F508del-hCFTR; assay type: cell-based; details: FIG. 2C
T3 construct: expressed in transfected cells; host or cells: Xenopus laevis oocytes injected with cRNA; mutant made by Quikchange site-directed mutagenesis of hCFTR/pGEMHE
Text: as §1, §2, §3

[3] = extracellular exposure, TEVC, Xenopus oocytes

T1 sequence (P13569 whole entry): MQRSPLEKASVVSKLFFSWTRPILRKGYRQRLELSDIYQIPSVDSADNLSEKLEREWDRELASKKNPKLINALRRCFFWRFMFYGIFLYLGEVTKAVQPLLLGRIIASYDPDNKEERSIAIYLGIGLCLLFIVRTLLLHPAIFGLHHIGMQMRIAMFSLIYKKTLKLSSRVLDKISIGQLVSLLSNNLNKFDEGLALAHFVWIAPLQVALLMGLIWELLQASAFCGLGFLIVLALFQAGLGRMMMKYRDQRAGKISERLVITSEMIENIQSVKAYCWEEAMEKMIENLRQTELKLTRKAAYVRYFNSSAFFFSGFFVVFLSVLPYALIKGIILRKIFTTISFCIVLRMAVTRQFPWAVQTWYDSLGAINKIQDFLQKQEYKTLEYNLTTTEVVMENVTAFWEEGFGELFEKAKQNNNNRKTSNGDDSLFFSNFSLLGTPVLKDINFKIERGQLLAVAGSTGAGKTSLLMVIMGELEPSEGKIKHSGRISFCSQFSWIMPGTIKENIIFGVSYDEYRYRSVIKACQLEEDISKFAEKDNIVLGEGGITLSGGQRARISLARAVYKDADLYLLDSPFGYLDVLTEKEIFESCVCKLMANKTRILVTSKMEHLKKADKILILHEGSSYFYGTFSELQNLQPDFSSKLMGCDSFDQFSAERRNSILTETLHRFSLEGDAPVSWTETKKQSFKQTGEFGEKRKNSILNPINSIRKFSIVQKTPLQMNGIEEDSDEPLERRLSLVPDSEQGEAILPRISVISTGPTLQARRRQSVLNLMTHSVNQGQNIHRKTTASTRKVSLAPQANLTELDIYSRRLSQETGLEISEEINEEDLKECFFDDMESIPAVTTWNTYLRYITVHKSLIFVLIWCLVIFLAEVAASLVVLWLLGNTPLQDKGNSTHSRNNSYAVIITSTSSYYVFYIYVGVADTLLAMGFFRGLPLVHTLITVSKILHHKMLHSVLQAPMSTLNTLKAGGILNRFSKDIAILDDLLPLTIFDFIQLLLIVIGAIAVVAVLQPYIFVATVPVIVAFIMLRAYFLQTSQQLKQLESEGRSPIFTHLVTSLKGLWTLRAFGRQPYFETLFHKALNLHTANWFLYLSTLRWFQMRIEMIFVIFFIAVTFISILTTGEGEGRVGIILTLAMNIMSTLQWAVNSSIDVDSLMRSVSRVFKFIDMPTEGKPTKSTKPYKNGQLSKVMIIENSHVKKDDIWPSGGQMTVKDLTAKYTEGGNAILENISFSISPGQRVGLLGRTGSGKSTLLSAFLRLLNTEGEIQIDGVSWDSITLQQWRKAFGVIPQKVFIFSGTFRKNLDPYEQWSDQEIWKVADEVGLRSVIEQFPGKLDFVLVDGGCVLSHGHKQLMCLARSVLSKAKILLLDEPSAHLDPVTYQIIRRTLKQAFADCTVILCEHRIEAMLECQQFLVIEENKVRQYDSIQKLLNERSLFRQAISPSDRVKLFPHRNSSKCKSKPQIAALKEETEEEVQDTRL
Sequence of hCFTR (P13569 whole entry): as above
Sequence of mCFTR (P26361 whole entry): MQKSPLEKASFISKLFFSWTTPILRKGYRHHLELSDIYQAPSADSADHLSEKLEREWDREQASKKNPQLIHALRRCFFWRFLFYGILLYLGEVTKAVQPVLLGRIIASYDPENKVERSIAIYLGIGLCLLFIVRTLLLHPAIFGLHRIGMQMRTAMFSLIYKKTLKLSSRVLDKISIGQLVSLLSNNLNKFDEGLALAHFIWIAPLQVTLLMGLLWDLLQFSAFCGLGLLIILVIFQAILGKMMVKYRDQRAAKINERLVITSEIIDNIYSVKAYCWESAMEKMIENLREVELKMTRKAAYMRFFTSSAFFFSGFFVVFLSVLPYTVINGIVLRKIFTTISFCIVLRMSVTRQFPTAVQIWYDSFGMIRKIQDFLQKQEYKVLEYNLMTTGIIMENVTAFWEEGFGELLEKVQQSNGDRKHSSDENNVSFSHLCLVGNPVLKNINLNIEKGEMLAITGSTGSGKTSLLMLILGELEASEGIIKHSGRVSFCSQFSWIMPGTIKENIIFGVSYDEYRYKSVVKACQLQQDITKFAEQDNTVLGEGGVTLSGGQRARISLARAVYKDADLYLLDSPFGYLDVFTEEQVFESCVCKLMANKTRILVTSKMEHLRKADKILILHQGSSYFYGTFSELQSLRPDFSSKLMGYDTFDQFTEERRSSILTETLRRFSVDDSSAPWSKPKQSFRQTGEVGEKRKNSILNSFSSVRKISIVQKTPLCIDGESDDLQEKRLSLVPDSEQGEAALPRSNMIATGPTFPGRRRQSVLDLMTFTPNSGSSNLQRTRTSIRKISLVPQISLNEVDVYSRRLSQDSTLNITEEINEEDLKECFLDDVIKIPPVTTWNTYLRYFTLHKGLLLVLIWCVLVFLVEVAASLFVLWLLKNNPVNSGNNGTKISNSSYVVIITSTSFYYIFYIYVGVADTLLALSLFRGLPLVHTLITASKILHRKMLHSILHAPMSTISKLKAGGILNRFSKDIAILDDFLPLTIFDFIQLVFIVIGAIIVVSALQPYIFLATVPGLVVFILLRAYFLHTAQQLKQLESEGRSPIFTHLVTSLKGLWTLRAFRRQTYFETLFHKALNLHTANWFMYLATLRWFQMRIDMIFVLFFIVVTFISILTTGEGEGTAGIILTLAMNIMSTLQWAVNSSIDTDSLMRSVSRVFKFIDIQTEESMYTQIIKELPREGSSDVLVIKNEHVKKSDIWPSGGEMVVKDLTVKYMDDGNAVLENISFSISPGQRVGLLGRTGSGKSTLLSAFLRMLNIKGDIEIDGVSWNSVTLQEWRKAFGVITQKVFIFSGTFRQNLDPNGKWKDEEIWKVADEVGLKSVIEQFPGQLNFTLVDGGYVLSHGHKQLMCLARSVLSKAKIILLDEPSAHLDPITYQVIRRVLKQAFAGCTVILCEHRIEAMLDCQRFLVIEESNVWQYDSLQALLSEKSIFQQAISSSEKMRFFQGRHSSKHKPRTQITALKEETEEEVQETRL
T3 sequence (P13569 with tags, fused parts or gaps DEL508-508): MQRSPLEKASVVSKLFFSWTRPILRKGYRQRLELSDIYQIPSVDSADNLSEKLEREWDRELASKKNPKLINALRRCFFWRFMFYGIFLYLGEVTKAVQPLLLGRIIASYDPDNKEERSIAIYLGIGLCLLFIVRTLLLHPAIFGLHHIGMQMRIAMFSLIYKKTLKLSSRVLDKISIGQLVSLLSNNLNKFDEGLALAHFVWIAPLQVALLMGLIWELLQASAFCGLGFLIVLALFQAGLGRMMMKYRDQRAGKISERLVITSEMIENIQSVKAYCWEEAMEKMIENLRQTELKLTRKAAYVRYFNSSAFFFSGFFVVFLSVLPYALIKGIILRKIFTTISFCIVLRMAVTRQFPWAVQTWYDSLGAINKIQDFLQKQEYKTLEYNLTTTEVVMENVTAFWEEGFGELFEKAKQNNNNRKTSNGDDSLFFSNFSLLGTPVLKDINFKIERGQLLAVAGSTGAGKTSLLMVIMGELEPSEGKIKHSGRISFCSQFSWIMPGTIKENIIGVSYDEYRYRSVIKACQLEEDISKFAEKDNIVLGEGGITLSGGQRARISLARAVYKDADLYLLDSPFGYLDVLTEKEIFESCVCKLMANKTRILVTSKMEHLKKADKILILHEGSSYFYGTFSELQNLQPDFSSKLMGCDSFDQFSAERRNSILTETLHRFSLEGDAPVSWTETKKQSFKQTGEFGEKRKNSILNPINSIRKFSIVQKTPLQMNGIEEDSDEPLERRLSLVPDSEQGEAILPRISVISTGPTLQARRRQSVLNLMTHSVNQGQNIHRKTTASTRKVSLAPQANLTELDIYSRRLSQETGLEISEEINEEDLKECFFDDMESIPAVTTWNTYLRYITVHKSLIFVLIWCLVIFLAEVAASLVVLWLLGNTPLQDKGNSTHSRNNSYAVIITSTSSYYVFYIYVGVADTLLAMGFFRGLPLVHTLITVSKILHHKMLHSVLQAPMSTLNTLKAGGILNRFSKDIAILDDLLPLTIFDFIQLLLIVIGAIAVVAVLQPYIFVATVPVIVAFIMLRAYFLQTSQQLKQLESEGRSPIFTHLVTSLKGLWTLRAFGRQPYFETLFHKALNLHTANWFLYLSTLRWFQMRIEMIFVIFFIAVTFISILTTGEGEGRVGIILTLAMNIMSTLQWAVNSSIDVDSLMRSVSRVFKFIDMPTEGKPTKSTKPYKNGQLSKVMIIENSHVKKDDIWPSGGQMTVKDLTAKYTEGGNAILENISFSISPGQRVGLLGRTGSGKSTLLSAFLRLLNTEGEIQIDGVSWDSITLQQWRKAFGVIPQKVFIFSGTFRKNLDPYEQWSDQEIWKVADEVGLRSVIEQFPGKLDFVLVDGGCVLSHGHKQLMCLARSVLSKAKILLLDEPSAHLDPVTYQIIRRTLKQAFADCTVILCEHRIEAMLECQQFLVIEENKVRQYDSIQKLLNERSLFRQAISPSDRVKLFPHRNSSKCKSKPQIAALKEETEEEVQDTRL
T2 sequence (P13569 whole entry R352A): as the sequence (P13569 whole entry) above, with R352A counted along it

O=C(CNc1ccc2ccccc2c1)N/N=C/c1cc(Br)c(O)c(Br)c1O [GlyH-101]
Potentiation of mCFTR (mCFTR): potentiate

O=C(O)c1cc([N+](=O)[O-])ccc1NCCCc1ccccc1 [NPPB]
Potentiation of hCFTR (hCFTR; channel incompletely phosphorylated, activated by a low concentration of PKA): potentiate
Potentiation of hCFTR (hCFTR; extremely high concentrations of NPPB): potentiate

COc1ccc(Cl)cc1C(=O)NCCc1ccc(S(=O)(=O)NC(=O)NC2CCCCC2)cc1 [glibenclamide]
Potentiation of mCFTR (mCFTR): potentiate

O=C(NCc1ccc(Oc2ccccc2)cc1)c1nc(-c2cc(Br)c(O)c(Br)c2)no1 [iOWH-032, 3-(3,5-dibromo-4-hydroxyphenyl)-N-(4-phenoxybenzyl)-1,2,4-oxadiazole-5-carboxamide]
Kd ([1]; inhibition component, read-out: Kd of inhibition of WT-hCFTR): 6.1 nM
Kd ([1]; potentiation component, read-out: Kd of potentiation of WT-hCFTR): 0.64 nM
Potentiation of WT-hCFTR channels [1, 3]: potentiated
Inhibition of R352A human CFTR [2]: did not inhibit
Potentiation of R352A human CFTR [2]: potentiated
Inhibition of F508del human CFTR (F508del-hCFTR): did not inhibit
Potentiation of F508del human CFTR (F508del-hCFTR; [3]): potentiated
